Columns and labels:
[1] = system: BaF3-TEL-cKIT (stably expressing cKIT kinase); experiment: Growth of BaF3-TEL-cKIT cells, Cell Titer-Glo, 72 h; format: cell-based, mouse
Text: (§1) In this example, mouse primary B cell BaF3 (purchased from ATCC, U.S.A.) was used. In addition, in this example, mouse BaF3-tel-PDGFRα (stably expressing PDGFRα kinase), mouse BaF3-tel-PDGFRβ (stably expressing PDGFRβ kinase), BaF3-P210 (stably expressing ABL kinase), BaF3-P210-T315I (stably expressing ABL-T315I kinase), BaF3-FL-BRAF-V600E (stably expressing BRAF-V600E kinase), BaF3-TEL-cKIT (stably expressing cKIT kinase), BaF3-TEL-VEGFR2 (stably expressing VEGFR2 kinase), BaF3-TEL-FGFR2 (stably expressing FGFR2 kinase) were also used. The above-mentioned cell trains were all constructed in our laboratory by the method as follows. The sequences of human BCR-ABL (P210 or P210/T315I mutated), full-length BRAF-V600E, cKIT, VEGFR2, FGFR2, PDGFRα, PDGFRβ kinase region were amplified respectively via PCR, and inserted respectively into a MSCV-Puro vector (purchased from Clontech) having a N-terminal TEL fragment and/or NPM fragment and/or TPR fragment, and stably transferred into mouse BaF3 cells by the retroviral method, and the growth factor IL-3 was removed. Eventually, cell lines which are transferred into proteins depending on PDGFRα, PDGFRβ were obtained.
(§2) In this example, solutions of the test compound at different concentrations (0.000508 μM, 0.00152 μM, 0.00457 μM, 0.0137 μM, 0.0411 μM, 0.123 μM, 0.370 μM, 1.11 μM, 3.33 μM, 10 μM) were added to the above cells. […]

[2] = system: BaF3-tel-PDGFRβ (stably expressing PDGFRβ kinase); experiment: Growth of BaF3-tel-PDGFRβ cells, Cell Titer-Glo, 72 h; format: cell-based, mouse
Text: as §1
(§3) In this example, solutions of the test compound at different concentrations (0.000508 μM, 0.00152 μM, 0.00457 μM, 0.0137 μM, 0.0411 μM, 0.123 μM, 0.370 μM, 1.11 μM, 3.33 μM, 10 μM) were added to the above cells. The cells were incubated for 72 hours.

[3] = system: BaF3-TEL-VEGFR2 (stably expressing VEGFR2 kinase); experiment: Growth of BaF3-TEL-VEGFR2 cells, Cell Titer-Glo, 72 h; format: cell-based, mouse
Text: as §1, §2

[4] = target: T1, BaF3-FL-BRAF-V600E (stably expressing BRAF-V600E kinase) (Homo sapiens, UniProt P15056, V600E); experiment: Growth of BaF3-FL-BRAF-V600E cells, Cell Titer-Glo, 72 h; format: cell-based, mouse
T1 construct: human BCR-ABL (P210 or P210/T315I mutated), full-length BRAF-V600E; expressed in transfected cells; host or cells: mouse BaF3, retroviral MSCV-Puro
Text: as §1, §2

[5] = system: BaF3-P210-T315I (stably expressing ABL-T315I kinase); experiment: Growth of BaF3-P210-T315I cells, Cell Titer-Glo, 72 h; format: cell-based, mouse
Text: as §1, §2

BaF3 = experiment: Growth of parental BaF3 cells, Cell Titer-Glo, 72 h; format: cell-based; conditions: Mus musculus
Text: as §1, §3

[6] = system: human chronic eosinophilic leukemia cells EOL-1 (expressing PDGFRα); experiment: Mouse tumor model of human chronic eosinophilic leukemia cells EOL-1; format: in vivo
Protocol: • 1) Bal b/c female mice, 4-6 weeks old, were purchased from Shanghai SLAC Laboratory Animal Co., Ltd., and were raised in an SPF laboratory; the drinking water and the bedding were both sterilized by autoclaving; and all the operations involving the mice were performed under aseptic conditions; • 2) On Day 0, 1×10^7 human chronic eosinophilic leukemia cells EOL-1 (expressing PDGFRα) (purchased from ATCC) were injected subcutaneously into the left flank of each of the mice; • 3) On Day 15, the mice were randomly divided into four groups with five mice per group, and were administered respectively for 14 days. […] The tumor volume was calculated as length×width×width/2 mm^3.

[7] = system: BaF3-TEL-FGFR2 (stably expressing FGFR2 kinase); experiment: Growth of BaF3-TEL-FGFR2 cells, Cell Titer-Glo, 72 h; format: cell-based, mouse
Text: as §1, §2

T1 sequence (P15056 whole entry V600E): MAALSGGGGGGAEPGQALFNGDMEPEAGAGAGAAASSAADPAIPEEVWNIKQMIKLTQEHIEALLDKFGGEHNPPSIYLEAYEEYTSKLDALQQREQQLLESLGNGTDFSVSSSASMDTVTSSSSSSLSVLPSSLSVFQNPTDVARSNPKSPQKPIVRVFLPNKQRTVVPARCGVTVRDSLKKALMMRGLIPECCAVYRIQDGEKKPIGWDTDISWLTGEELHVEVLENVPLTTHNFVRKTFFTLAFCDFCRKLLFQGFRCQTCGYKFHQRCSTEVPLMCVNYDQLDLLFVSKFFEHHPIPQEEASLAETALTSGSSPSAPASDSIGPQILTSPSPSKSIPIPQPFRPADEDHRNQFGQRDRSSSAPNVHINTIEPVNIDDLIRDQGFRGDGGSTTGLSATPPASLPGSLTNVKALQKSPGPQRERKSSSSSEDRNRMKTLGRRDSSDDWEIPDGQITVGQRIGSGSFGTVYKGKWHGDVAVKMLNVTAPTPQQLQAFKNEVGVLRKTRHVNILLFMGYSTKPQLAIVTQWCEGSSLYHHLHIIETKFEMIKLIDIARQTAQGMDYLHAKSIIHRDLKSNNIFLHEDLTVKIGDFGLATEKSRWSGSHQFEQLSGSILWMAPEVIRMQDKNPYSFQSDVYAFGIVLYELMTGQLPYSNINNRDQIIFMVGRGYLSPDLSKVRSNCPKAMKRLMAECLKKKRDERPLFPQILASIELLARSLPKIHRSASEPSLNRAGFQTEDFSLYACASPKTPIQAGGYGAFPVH

## Cc1ccc(NC(=O)c2cccc(C(F)(F)F)n2)cc1-n1cc(-c2cncc(N3CCN(C)CC3)c2)cn1 [Compound 1, N-(4-methyl-3-(4-(5-(4-methylpiperazin-1-yl)pyridin-3-yl)-1H-pyrazol-1-yl)phenyl)-6-(trifluoromethyl)picolinamide]
[1]; BaF3-TEL-cKIT cells, 72 hours
  GI50: 5.34 µM
[1]; summary of Table 2
  inhibitory effect against cKIT (in words): no inhibitory effect, or a relatively weak inhibitory effect
[2]
  GI50: 0.43 µM
[3]; BaF3-TEL-VEGFR2 cells, 72 hours
  GI50: 4 µM
[3]; summary of Table 2
  inhibitory effect against VEGFR2 (in words): no inhibitory effect, or a relatively weak inhibitory effect
[4]; BaF3-FL-BRAF-V600E cells, 72 hours
  GI50: 4.7 µM
[4]; summary of Table 2
  inhibitory effect against BRAF-V600E (in words): no inhibitory effect, or a relatively weak inhibitory effect
[5]; BaF3-P210-T315I cells, 72 hours
  GI50: 5.16 µM
[5]; summary of Table 2
  inhibitory effect against ABL-T315I (in words): no inhibitory effect, or a relatively weak inhibitory effect
BaF3
  GI50: 4.08 µM
[6]; 5 mg/kg, 14 days after administration, by tumor weight vs control group, FIG. 1c
  tumor growth inhibitory rate (TGI): 96%
[6]; 5 mg/kg, FIG. 1b
  effect on tumor size (in words): excellent effect in inhibiting the tumor
[6]; EOL-1 mouse model, 14 days administration, FIG. 1a
  effect on the body weight of the mouse (in words): little effect on the body weight
[7]; BaF3-TEL-FGFR2 cells, 72 hours
  GI50: 3.26 µM
[7]; summary of Table 2
  inhibitory effect against FGFR2 (in words): no inhibitory effect, or a relatively weak inhibitory effect

Source: patent US12310963B2, “Pyrazole derivatives and use thereof” (Tarapeutics Science Inc., priority 2019, dated 2025)
